According to patent US20260056197A1, “METHOD FOR MEASURING TRACP-5b AND KIT THEREFOR” (NITTO BOSEKI CO., LTD., priority 2023, published 2026):

What was measured:
Type in all cases: biochemical
[1] = target: T1, TRACP-5a (Homo sapiens, UniProt P13686); assay: Test 2: study of concentration of TRACP-5a inhibitor (enzyme method); details: Table 8; for Activity value 5a: 8 U/L TRACP-5a solution, control 8.0; for 5b/5a ratio: control 0.9
T1 construct: purchased R&D Systems, Inc
T1 sequence (P13686 22-325): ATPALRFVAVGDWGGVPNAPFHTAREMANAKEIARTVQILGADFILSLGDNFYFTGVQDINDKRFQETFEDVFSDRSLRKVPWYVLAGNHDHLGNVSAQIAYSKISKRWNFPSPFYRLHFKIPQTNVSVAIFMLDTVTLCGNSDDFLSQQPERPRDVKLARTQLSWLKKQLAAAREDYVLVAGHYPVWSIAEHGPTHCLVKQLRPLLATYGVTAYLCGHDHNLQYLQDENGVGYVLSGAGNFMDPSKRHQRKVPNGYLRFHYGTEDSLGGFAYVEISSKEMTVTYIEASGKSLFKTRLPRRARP
Protocol: (§1) For the measurement, Hitachi automatic analyzer model 7180 (Hitachi High-Tech Corporation) was used. To 16 μL of the 7 U/L TRACP-5b solution, or the 7 U/L TRACP-5a solution or the 8 U/L TRACP-5a solution, 200 μL of the chromogenic substrate solution containing an evaluation compound was added to start an enzymatic reaction, and the absorbance (primary wavelength: 405 nm, secondary wavelength: 480 nm) was measured for 516.0 seconds starting at 340.5 seconds after the beginning of the enzymatic reaction. The amount of absorbance change per minute (the amount of absorbance change per unit time during the enzymatic reaction) was determined from the absorbance change between both the time points.
(§2) On the other hand, serial dilutions of a TRACP-5b reference solution with known activity in a 22 mM MES buffer solution (pH 5.0) as well as a 22 mM MES buffer solution (pH 5.0) as a blank were prepared; the serial dilutions of the TRACP-5b reference solution were measured using the chromogenic substrate solution containing each evaluation compound, thereby producing a standard straight line for the TRACP-5b. In addition, the serial dilutions of the TRACP-5b reference solution were measured using the chromogenic substrate solution without any evaluation compound in the same manner, thereby producing a standard straight line for the TRACP-5b. The chromogenic substrate solution containing each evaluation compound and the chromogenic substrate solution without any evaluation compound were used to measure the TRACP-5b solution and the TRACP-5a solution, and these standard straight lines were used to calculate activity values from the obtained amounts of absorbance change.
(§3) For dextran sulfate sodium (5K), dextran sulfate sodium (50K), sodium polyvinyl sulfonate (5K), and sodium vinylsulfonate, the influence of the concentration on the inhibitory activity was studied.
(§4) The concentration of each evaluation compound in the measurement reagent (chromogenic substrate solution) was adjusted as follows.
(§5) A 7 U/L TRACP-5b solution and a 7 U/L TRACP-5a solution were used in the test using a reagent containing dextran sulfate sodium (5K) and dextran sulfate sodium (50K); a 7 U/L TRACP-5b solution and a 7 U/L or 8 U/L TRACP-5a solution were used in the test using a reagent containing sodium polyvinyl sulfonate (5K); and a 7 U/L TRACP-5b solution and an 8 U/L TRACP-5a solution were used in the test using a reagent containing sodium vinylsulfonate.
(§6) The chromogenic substrate solution having the same composition as in Test 1 was used, except that the concentration of each evaluation compound was as described above. The measurement method was carried out in the same procedure as in Test 1.

[2] = tested on: TRACP-5b; assay: as above; details: Table 8, 7 U/L TRACP-5b solution, control 6.9
Protocol: as §1, §2, §3, §4, §5, §6

[3] = target: T1, TRACP-5a; assay: Test 1: evaluation of TRACP-5a inhibitor in an enzyme method; details: Table 4, 0.1 mass % evaluation compound in chromogenic substrate solution; for Activity value 5a: 7 U/L TRACP-5a solution, control without compound 6.5; for 5b/5a ratio: control without compound 1.1
Protocol: TRACP-5b manufactured by Nittobo Medical Co., Ltd. and TRACP-5a manufactured by R&D Systems, Inc. were diluted with a 22 mM MES buffer (pH 5.0) to prepare a 7 U/L TRACP-5b solution and a 7 U/L TRACP-5a solution, and the solutions were used as measurement samples. In the measurement with sodium hyaluronate, a 7 U/L TRACP-5b solution and an 8 U/L TRACP-5a solution prepared in the same manner were used.
A chromogenic substrate solution having the following composition was used. • 5 mM 2-chloro-4-nitrophenyl phosphate • 109 mM MES • 40 mM sodium tartrate • 0.1 mass % evaluation compound • pH 6.6
as §1, §2
The measurement using sodium hyaluronate was performed in a separate batch from that with other evaluation compounds.

[4] = tested on: TRACP-5b; assay: as above; details: Table 4; 0.1 mass % evaluation compound in chromogenic substrate solution; 7 U/L TRACP-5b solution; control without compound 6.9
Protocol: The amount of absorbance change per minute (the amount of absorbance change per unit time during the enzymatic reaction) was determined from the absorbance change between both the time points.
as §2

[5] = target: T1, TRACP-5a; assay: Evaluation of TRACP-5a inhibitor in EIA method; details: for 5b/5a ratio: Table 14, 0.1 mass % evaluation compound in chromogenic substrate solution, control without compound 1.3; for Abs. 405 nm 5a: Table 14, antibody-immobilized plate, 0.1 mass % evaluation compound in chromogenic substrate solution, 7 U/L TRACP-5a solution, control without compound 0.1956
Protocol: (§7) A TRACP-5b monoclonal antibody (Accession Number IPOD FERM BP-7890) was diluted with PBS (8 mM disodium hydrogenphosphate, 1.5 mM sodium dihydrogenphosphate, 2.7 mM KCl, and 137 mM NaCl; pH 7.5) to 10 µg/mL, and 100 μL of the antibody-containing solution was added to each well of an ELISA plate (manufactured by Thermo Fisher Scientific, Inc., product number 468667). The solution was left to stand overnight under refrigeration, then washed 3 times with 300 μL of TBS-T (50 mM Tris-HCl, 150 mM NaCl, and 0.05% Tween 20; pH 7.5), then 300 μL of TBS containing 1.5% BSA was added, and the mixture was left to stand overnight under refrigeration.
(§8) After the TBS containing 1.5% BSA was removed from the prepared antibody-immobilized plate, 100 μL of TBS (50 mM Tris-HCl and 150 mM NaCl, pH 7.5) and 50 μL of the 7 U/L TRACP-5b solution or the 7 U/L TRACP-5a solution were added to each well, and the mixture was reacted for 1 hour under stirring (25° C., 700 rpm). After washing 3 times with 300 µL of TBS-T, 100 μL of a chromogenic substrate solution (5 mM 2-chloro-4-nitrophenyl phosphate, 109 mM MES, and 40 mM sodium tartrate; pH 6.6) to which the evaluation compound was added at a concentration of 0.1 mass % was added to each well, and the plate was left to stand at 37° C. for 1 hour. Thereafter, 50 μL of 0.5 N NaOH was added, and the absorbance (primary wavelength: 405 nm, secondary wavelength: 490 nm) was measured with a plate reader.

[6] = tested on: TRACP-5b; assay: Evaluation of TRACP-5a inhibitor in EIA method; details: Table 14, antibody-immobilized plate, 0.1 mass % evaluation compound in chromogenic substrate solution, 7 U/L TRACP-5b solution, control without compound 0.2477
Protocol: as §7, §8

| Molecule | Activity value 5a ([1]; VSA Na 0.0200 mass %) | 5b/5a ratio ([1]; VSA Na 0.0200 mass %) | Activity value 5b ([2]; VSA Na 0.0200 mass %) | Activity value 5a [3] | 5b/5a ratio [3] | Activity value 5b [4] | 5b/5a ratio [5] | Abs. 405 nm 5a [5] | Abs. 405 nm 5b [6] | Activity value 5a ([1]; VSA Na 0.0100 mass %) | 5b/5a ratio ([1]; VSA Na 0.0100 mass %) | Activity value 5a ([1]; VSA Na 0.0150 mass %) | 5b/5a ratio ([1]; VSA Na 0.0150 mass %) | Activity value 5b ([2]; VSA Na 0.0100 mass %) | Activity value 5b ([2]; VSA Na 0.0150 mass %) |
| --- | --- | --- | --- | --- | --- | --- | --- | --- | --- | --- | --- | --- | --- | --- | --- |
| Sodium vinylsulfonate [Example 5] | 4.5 U/L | 1.5 | 6.9 U/L |  |  |  |  |  |  |  |  |  |  |  |  |
| β-cyclodextrin sodium sulfate [Comparative example 1, reference compound] |  |  |  | 2.3 U/L | 2.9 | 6.7 U/L | 2.3 | 0.0853 | 0.1971 |  |  |  |  |  |  |
| C=CS(=O)(=O)[O-].[Na+] [Example 5, Sodium vinylsulfonate] |  |  |  | 1.6 U/L | 4.1 | 6.5 U/L | 3.4 | 0.0775 | 0.2600 | 6.8 U/L | 1.0 | 5.6 U/L | 1.2 | 6.8 U/L | 6.8 U/L |
